In patent publication US9133164B2, “MIF inhibitors and their uses” (INNOV88 LLC, priority 2011, dated 2015):
Where two headings read alike, the source gives them in different places.

Experiments:
MIF = biological target: T1, MIF (Homo sapiens, UniProt P14174); experiment: Time dependence in the MIF tautomerase activity assay (preincubation); assay type: biochemical
T1 sequence (P14174 2-115 limits assumed): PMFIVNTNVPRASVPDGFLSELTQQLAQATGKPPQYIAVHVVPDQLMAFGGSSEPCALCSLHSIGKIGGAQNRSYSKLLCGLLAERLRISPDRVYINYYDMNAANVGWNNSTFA
Procedure: (§1) The ability of candidate compounds to inhibit this tautomerase activity is quantitated by wing hydroxyphenyl pyruvic acid (HPP) as a substrate and following the increase in absorbance due to the enzymatic formation of the HPP enol-borate complex at 300 nm in the absence and presence of a test compound. The IC50 value of compounds was determined by plotting the initial velocities determined at 300 nm as a function of a test compound's concentration. Assays were carried out in a 96 or 384 well plate format.
The MIF tautomerase and cytokine inhibitor Compound 1 was designed as a potential irreversible inhibitor of MIF tautomerase activity. In an effort to investigate this mechanism, time dependent inhibitor analysis was carried out. In this experiment MIF was preincubated [P.I.] with Compound 1 for either 0 minutes, 20 minutes or 60 minutes followed by tautomerase enzyme activity determination.
Compound 1 was preincubated with MIF as indicated (0 min-60 min) and, a tautomerase dose-response analysis was carried out.

[1] = system: anti-CD3/anti-CD28-stimulated PBMCs; experiment: Th17-specific cytokine production in anti-CD3/anti-CD28-stimulated human PBMCs (ELISA); assay type: cell-based; conditions: PBMC, compound at 2.5 uM, 72 hours
Excerpt: MIF is secreted by monocytes/macrophages, activated T cells and several effector cells that play an important role in the perpetuation of inflammatory responses of the disease pathogenesis of several autoimmune and inflammatory disorders. MIF promotes the production of proinflammatory mediators such as tumor necrosis factor-α (TNF-α), interleukin (IL)-1β, IL-6 and IL-8 acting in an autocrine and paracrine function in the induction of proinflammatory responses. MIF has also been reported to stimulate the production of IL-17, a T helper 17 (Th17)-specific cytokine critical to the pathogenesis of several autoimmune and inflammatory diseases. […] Mono-Mac-6 Cells: The cellular efficacy of compound candidates is determined using the human monocytic cell line, Mono-Mac-6 cells (MM6 cells) as it has been shown that MM6 cells abundantly express MIF receptors CD74 and CXCR4. MIF-mediated signal transduction through these receptors may be important for the production of inflammatory mediators, including TNF-α, IL-1β, IL-6, IL-8, interferon-γ (IFN-γ) and prostaglandin E2 (PGE2) in these cells. To induce the production of inflammatory mediators, MM6 cells will be plated at a final concentration of 5×10^5 cells/ml in RPMI 1640 medium containing 1% heat-inactivated low-pyrogen fetal bovine serum, 2 mM GlutaMAX-I, 1% non-essential amino acids, 1% sodium pyruvate, 100 units/ml penicillin G and 100 μg/ml streptomycin (Gibco BRL Life Technologies). Cells will be stimulated with 100 ng/ml rhMIF purchased commercially or generated in house with or without inhibitor for 20 h at 37° C. with 5% CO2. The supernatants are stored at […] until they are to be assayed. The levels of inflammatory mediators will be determined using commercial :ELISA kits (eBiosciences). Human Peripheral Blood Mononuclear Cells (PBMCs): The cellular efficacy of compound candidates in inhibiting the production of proinflammatory mediators TNF-α, IL-1β, IL-6 and IL-8 following lipopolysaccharide (LPS) and rhMIF stimulation, and the production of T helper 17 (Th17)-specific cytokines IL-17F and IL-22 following anti-CD3/anti-CD28 stimulation, are determined in human PBMCs. To induce the production of proinflammatory cytokine mediators, cryopreserved human PBMCs (Cellular Technology Ltd.) are plated at a final concentration of 2×10^5 cells/ml in RPMI 1640 medium containing 1% heat-inactivated fetal bovine serum, 1% L-Glutamine and 1% Penicillin/Streptomycin (Lonza). […] Cell viability is determined using PrestoBlue™ Cell Viability Reagent (Invitrogen). The cytokine production levels of TNF-α, IL-1β, IL-6, IL-8, IL-17F and IL-22 are determined using commercial ELISA kits (eBiosciences). […]

Native human MIF = biological target: T2, Native human MIF (Homo sapiens, UniProt P14174); experiment: MIF tautomerase activity assay (HPP substrate); assay type: biochemical; conditions: absorbance at 300 nm
T2 sequence (P14174 2-115 limits assumed): T1 sequence (P14174 2-115 limits assumed)
Procedure: as §1
Representative MIF inhibitors were tested in the assay described above and the results tabulated in Table 1 wherein “A” represents ≦1 μM; “B” represents >1 μM and ≦100 μM; “C” represents >100 μM

LPS-stimulated PBMCs = experiment: Cytokine production in LPS-stimulated human PBMCs (ELISA); assay type: cell-based; conditions: Homo sapiens, PBMC, LPS-stimulated PBMCs, 1 hour preincubation, 20 hours; for inhibition at 2.5 µM: compound at 2.5 uM; for inhibition at 25 µM: compound at 25 uM
Excerpt: MIF is secreted by monocytes/macrophages, activated T cells and several effector cells that play an important role in the perpetuation of inflammatory responses of the disease pathogenesis of several autoimmune and inflammatory disorders. MIF promotes the production of proinflammatory mediators such as tumor necrosis factor-α (TNF-α), interleukin (IL)-1β, IL-6 and IL-8 acting in an autocrine and paracrine function in the induction of proinflammatory responses. MIF has also been reported to stimulate the production of IL-17, a T helper 17 (Th17)-specific cytokine critical to the pathogenesis of several autoimmune and inflammatory diseases. […] Mono-Mac-6 Cells: The cellular efficacy of compound candidates is determined using the human monocytic cell line, Mono-Mac-6 cells (MM6 cells) as it has been shown that MM6 cells abundantly express MIF receptors CD74 and CXCR4. MIF-mediated signal transduction through these receptors may be important for the production of inflammatory mediators, including TNF-α, IL-1β, IL-6, IL-8, interferon-γ (IFN-γ) and prostaglandin E2 (PGE2) in these cells. To induce the production of inflammatory mediators, MM6 cells will be plated at a final concentration of 5×10^5 cells/ml in RPMI 1640 medium containing 1% heat-inactivated low-pyrogen fetal bovine serum, 2 mM GlutaMAX-I, 1% non-essential amino acids, 1% sodium pyruvate, 100 units/ml penicillin G and 100 μg/ml streptomycin (Gibco BRL Life Technologies). Cells will be stimulated with 100 ng/ml rhMIF purchased commercially or generated in house with or without inhibitor for 20 h at 37° C. with 5% CO2. The supernatants are stored at […] until they are to be assayed. The levels of inflammatory mediators will be determined using commercial :ELISA kits (eBiosciences). Human Peripheral Blood Mononuclear Cells (PBMCs): The cellular efficacy of compound candidates in inhibiting the production of proinflammatory mediators TNF-α, IL-1β, IL-6 and IL-8 following lipopolysaccharide (LPS) and rhMIF stimulation, and the production of T helper 17 (Th17)-specific cytokines IL-17F and IL-22 following anti-CD3/anti-CD28 stimulation, are determined in human PBMCs. To induce the production of proinflammatory cytokine mediators, cryopreserved human PBMCs (Cellular Technology Ltd.) are plated at a final concentration of 2×10^5 cells/ml in RPMI 1640 medium containing 1% heat-inactivated fetal bovine serum, 1% L-Glutamine and 1% Penicillin/Streptomycin (Lonza). Cells are pre-incubated with or without inhibitor compounds dissolved in DMSO for 1 hour, then stimulated with LPS (Sigma Aldrich) or rhMIF to yield final concentrations of <0.1% DMSO, 100 ng/ml LPS and the compound concentration of interest. The potency of the compound candidates in inhibiting cytokine production is compared, to other small molecule MIF inhibitor standards ISO-1 (EMD Chemicals) N-acetyl-p-benzoquinone imine (NAPQI) and Ibudilast (TCI America). Cells were incubated for 20 hours at 37° C., 5% CO2. For the Th17-specific cytokine production assay, cells are stimulated with 5 ug/mL plate immobilized anti-CD3 (eBioscience) and 2 ug/mL soluble anti-CD28 (eBioscience) in the presence or absence of inhibitor compounds dissolved in DMSO to yield final compound concentrations of interest at <0.1% DMSO. Cells were incubated for 72 hours at 37° C. and 5% CO2. The supernatants are stored at −20° C. until they are to be assayed by ELISA. Cell viability is determined using PrestoBlue™ Cell Viability Reagent (Invitrogen). The cytokine production levels of TNF-α, IL-1β, IL-6, IL-8, IL-17F and IL-22 are determined using commercial ELISA kits (eBiosciences). Human Rheumatoid Arthritis Synovial Fibroblast (RASF) Cell Line: RASF cells are cultured in Dulbecco's modified Eagle's medium with 15% FBS, 1% glutamine, and 1% penicillin/streptamycin (all from Gibco (Invitrogen), Gaithersburg, Md.). […]

[2] = read-out: percent inhibition of IL-17F production
[3] = read-out: percent inhibition of IL-22 production
[4] = read-out: percent inhibition of IL-1β production
[5] = read-out: percent inhibition of IL-6 production
[6] = read-out: percent inhibition of IL-8 production
[7] = read-out: percent inhibition of TNF-α production

| Compound | IC50 (MIF; 0 minutes, no preincubation with MIF) | IC50 (MIF; 20 minutes preincubation with MIF) | IC50 (MIF; 60 minutes preincubation with MIF) | inhibition at 2.5 µM [1, 2] | inhibition at 2.5 µM [1, 3] | IC50 (Native human MIF) | inhibition at 2.5 µM (LPS-stimulated PBMCs; [4]) | inhibition at 2.5 µM (LPS-stimulated PBMCs; [5]) | inhibition at 2.5 µM (LPS-stimulated PBMCs; [6]) | inhibition at 2.5 µM (LPS-stimulated PBMCs; [7]) | inhibition at 25 µM (LPS-stimulated PBMCs; [4]) | inhibition at 25 µM (LPS-stimulated PBMCs; [5]) | inhibition at 25 µM (LPS-stimulated PBMCs; [6]) | inhibition at 25 µM (LPS-stimulated PBMCs; [7]) |
| --- | --- | --- | --- | --- | --- | --- | --- | --- | --- | --- | --- | --- | --- | --- |
| N#Cc1c(NC2CN(C(=O)CCl)C2)c2ccccc2n(Cc2ccc(F)cc2)c1=O [Compound 1, 4-[1-(2-Chloro-acetyl)-azetidin-3-ylamino]-1-(4-fluoro-benzyl)-2-oxo-1,2-dihydro-quinoline-3-carbonitrile] | 24 µM | 6 µM | 3 µM | > 70% | > 70% | 1 to 100 µM | > 70% | 10 to 50% | 10 to 50% | 10 to 50% | > 70% | > 70% | 50 to 70% | > 70% |
| N#Cc1c(NC2CN(C(=O)c3ccncc3)C2)c2ccccc2n(Cc2ccc(F)cc2)c1=O [Compound 7] |  |  |  |  |  | ≤ 1 µM | 50 to 70% | 10 to 50% | < 10% | 10 to 50% | > 70% | < 10% | < 10% | > 70% |
| C=CC(=O)N1CCN(c2c(C#N)c(=O)n(Cc3ccc(F)cc3)c3ccccc23)CC1 [Compound 2, 4-(4-acryloylpiperazin-1-yl)-1-(4-fluorobenzyl)-2-oxo-1,2-dihydroquinoline-3-carbonitrile] |  |  |  | > 70% | 10 to 50% | 1 to 100 µM | > 70% | < 10% | < 10% | 10 to 50% | > 70% | < 10% | < 10% | > 70% |
| C=CC(=O)N1CCC(Nc2c(C#N)c(=O)n(C)c3ccccc23)CC1 [Compound 4, 4-(1-Acryloyl-piperidin-4-ylamino)-1-methyl-2-oxo-1,2-dihydro-quinoline-3-carbonitrile] |  |  |  |  |  | > 100 µM | 10 to 50% | 10 to 50% | < 10% | < 10% | 50 to 70% | < 10% | < 10% | 10 to 50% |
| Cn1c(=O)c(C#N)c(NC2CCN(C(=O)c3cccs3)CC2)c2ccccc21 [Compound 5] |  |  |  |  |  | ≤ 1 µM | 50 to 70% | 10 to 50% | < 10% | 10 to 50% | > 70% | < 10% | < 10% | 50 to 70% |
| C=CC(=O)N1CC(Nc2c(C#N)c(=O)n(CCOCC)c3ccccc23)C1 [Compound 3, 4-(1-Acryloyl-azetidin-3-ylamino)-1-(2-ethoxy-ethyl)-2-oxo-1,2-dihydro-quinoline-3-carbonitrile] |  |  |  |  |  | > 100 µM | 50 to 70% | < 10% | < 10% | < 10% | 10 to 50% | < 10% | < 10% | 10 to 50% |
